Marks after values point to notes of the source that are not given here.
What was measured:
Test in all cases: 10-day proliferation (CTG), SPLAM titration + 1000 nM Compound A, Bliss (Example 5; Tables 12-19)
Format in all cases: cell-based
Set-up in all cases: key: GDI scale -100 to 100; 0 = cell number at T0; <0 cytotoxic
SW900 = conditions: for GDI: alone or + 1 uM Cmpd A; for GDI (growth death index), single agent Cmpd A: SW900, 1000 nM Compound A
Procedure: (§1) Synergy was measured across the Indisulam titration with 1000 nM Compound A by Bliss Independence analysis. Bliss scores >10 are indicated by “*” and are considered synergistic. […] Synergy as reported using Bliss may be underrepresented within cytotoxic dose ranges. Growth death index values are shown for the combination titration and each single agent Compound A (Cmpd A) and Indisulam on a scale of −100 to 100 with the midpoint (0) being the number of cells at the beginning of the combination (T0). Scores less than 0 are indicated with “**” and are representative of a cytotoxic response. Bliss and GDI values are shown for five MTAP-deficient cell lines: NCI-1H838 (12A), SW900 (12B), RT112/84 (12C), UMUC5 (121D), and UMUC11 (12E).
(§2) A 10-day proliferation assay was performed in a panel of 5 MTAP-deficient and 2 wild type non-small cell lung and bladder cancer cell lines. Optimal cell seeding for all cell lines was determined by assessing the growth over a range of seeding densities in a 384-well format to identify conditions that permitted proliferation for 10 days. Cells were then plated at the optimal seeding density and treated with 20-point, two-fold dilution series of each of four structurally different SPLAMs in combination with a 1000 nM fixed concentration of Compound A. Single agent titrations for Compound A and each SPLAM were included for comparison. Concentrations tested for each SPLAM alone or in combination ranged from 0.04 nM to 20,000 nM. A plate of cells was harvested at the time of compound addition to quantify the number of cells at the start of the combination (T0). For cell quantification, the harvested cells were lysed with Promega CellTiter-Glo (CTG) reagent according to the manufacturer's protocol and the chemiluminescent signal was detected as described in Example 1 above. Cells were incubated with the drug combinations at 37° C. with 5% CO2 for 10 days. Cells were then lysed with CTG and the chemiluminescent signal was measured.
(§3) CTG values obtained after the 10-day treatment were background subtracted and expressed as a percent of the T0 value set at 100%. Data were plotted against compound concentration and fit with a four-parameter equation to generate single agent dose response curves. Percent inhibition was determined for each combination and single agent concentration compared to a DMSO control. In addition, the overall net growth or death of the cells was calculated and reported as a growth death index (GDI) value on a scale of −100 to 100 with the midpoint (0) being the number of cells at the beginning of the combination (T0).
(§4) Predicted inhibition was calculated using (Ea+Eb)−(Ea*Eb) where E equals the effect (inhibition) of each single agent (a and b). A difference between the observed inhibition percentage and the predicted inhibition percentage greater than 10% was considered synergistic. A Bliss score was only reported for combinations eliciting >20% growth inhibition (GDI value <80). Since Bliss is calculated based on growth inhibition, scores within cytotoxic dose ranges may not accurately reflect synergistic cytoxicity.
(§5) Synergy was measured across the E7820 titration with 1000 nM Compound A by Bliss Independence analysis. Bliss scores >10 are indicated by “*” and are considered synergistic. […] Synergy as reported using Bliss may be underrepresented within cytotoxic dose ranges. Growth death index values are shown for the combination titration and each single agent Compound A (Cmpd A) and Indisulam on a scale of −100 to 100 with the midpoint (0) being the number of cells at the beginning of the combination (T0). Scores less than 0 are indicated by “**” and are representative of a cytotoxic response. Bliss and GDI values are shown for five MTAP-deficient cell lines: NCI-1H838 (14A), SW900 (14B), RT112/84 (14C), UMUC5 (141)), and UMUC11 (14E).
(§6) Synergy was measured across the Chloroquinoxaline Sulfonamide titration with 1000 nM Compound A by Bliss Independence analysis.

UMUC11 = conditions: for GDI (growth death index), single agent Cmpd A: UMUC11, 1000 nM Compound A
Procedure: as §1, §2, §3, §4, §5, §6

RT112/84 = conditions: for GDI (growth death index), single agent Cmpd A: RT112/84, 1000 nM Compound A
Procedure: as §1, §2, §3, §4, §5, §6

UMUC5 = conditions: for GDI (growth death index), single agent Cmpd A: UMUC5, 1000 nM Compound A
Procedure: as §1, §2, §3, §4, §5, §6

[1] = SPLAM 0.04 nM, alone or + 1 uM Cmpd A
[2] = SPLAM 0.1 nM, alone or + 1 uM Cmpd A
[3] = SPLAM 0.2 nM, alone or + 1 uM Cmpd A
[4] = SPLAM 0.3 nM, alone or + 1 uM Cmpd A
[5] = SPLAM 0.6 nM, alone or + 1 uM Cmpd A
[6] = SPLAM 1.2 nM, alone or + 1 uM Cmpd A
[7] = SPLAM 2.4 nM, alone or + 1 uM Cmpd A
[8] = SPLAM 4.9 nM, alone or + 1 uM Cmpd A
[9] = SPLAM 9.8 nM, alone or + 1 uM Cmpd A
[10] = SPLAM 19.5 nM, alone or + 1 uM Cmpd A
[11] = SPLAM 39.1 nM, alone or + 1 uM Cmpd A
[12] = SPLAM 78.1 nM, alone or + 1 uM Cmpd A
[13] = SPLAM 156.3 nM, alone or + 1 uM Cmpd A
[14] = SPLAM 312.5 nM, alone or + 1 uM Cmpd A
[15] = SPLAM 625 nM, alone or + 1 uM Cmpd A
[16] = SPLAM 1250 nM, alone or + 1 uM Cmpd A
[17] = SPLAM 2500 nM, alone or + 1 uM Cmpd A
[18] = SPLAM 5000 nM, alone or + 1 uM Cmpd A
[19] = SPLAM 10000 nM, alone or + 1 uM Cmpd A
[20] = SPLAM 20000 nM, alone or + 1 uM Cmpd A

Cc1ccc(NS(=O)(=O)c2cccc(C#N)c2)c2[nH]cc(C#N)c12 [Compound E7820, 3-cyano-N-(3-cyano-4-methyl-1H-indol-7-yl)benzenesulfonamide]
GDI (SW900; SPLAM 0.04 nM): 97
GDI (SW900; SPLAM 0.1 nM): 100
GDI (SW900; SPLAM 0.2 nM): 99
GDI (SW900; SPLAM 0.3 nM): 100
GDI (SW900; SPLAM 0.6 nM): 100
GDI (SW900; SPLAM 1.2 nM): 100
GDI (SW900; SPLAM 2.4 nM): 100
GDI (SW900; SPLAM 4.9 nM): 100
GDI (SW900; SPLAM 9.8 nM): 100
GDI (SW900; SPLAM 19.5 nM): 100
GDI (SW900; SPLAM 39.1 nM): 100
GDI (SW900; SPLAM 78.1 nM): 100
GDI (SW900; SPLAM 156.3 nM): 100
GDI (SW900; SPLAM 312.5 nM): 28
GDI (SW900; SPLAM 625 nM): −7**
GDI (SW900; SPLAM 1250 nM): −37**
GDI (SW900; SPLAM 2500 nM): −56**
GDI (SW900; SPLAM 5000 nM): −47**
GDI (SW900; SPLAM 10000 nM): −70**
GDI (SW900; SPLAM 20000 nM): −59**
GDI (UMUC11; [1]): 100
GDI (UMUC11; [2]): 100
GDI (UMUC11; [3]): 100
GDI (UMUC11; [4]): 100
GDI (UMUC11; [5]): 100
GDI (UMUC11; [6]): 100
GDI (UMUC11; [7]): 100
GDI (UMUC11; [8]): 100
GDI (UMUC11; [9]): 100
GDI (UMUC11; [10]): 100
GDI (UMUC11; [11]): 100
GDI (UMUC11; [12]): 100
GDI (UMUC11; [13]): 100
GDI (UMUC11; [14]): 76
GDI (UMUC11; [15]): 31
GDI (UMUC11; [16]): 11
GDI (UMUC11; [17]): 5
GDI (UMUC11; [18]): 4
GDI (UMUC11; [19]): 3
GDI (UMUC11; [20]): 1
GDI (RT112/84; [1]): 89
GDI (RT112/84; [2]): 94
GDI (RT112/84; [3]): 100
GDI (RT112/84; [4]): 100
GDI (RT112/84; [5]): 100
GDI (RT112/84; [6]): 100
GDI (RT112/84; [7]): 100
GDI (RT112/84; [8]): 94
GDI (RT112/84; [9]): 100
GDI (RT112/84; [10]): 100
GDI (RT112/84; [11]): 100
GDI (RT112/84; [12]): 100
GDI (RT112/84; [13]): 90
GDI (RT112/84; [14]): 31
GDI (RT112/84; [15]): 6
GDI (RT112/84; [16]): −35**
GDI (RT112/84; [17]): −84**
GDI (RT112/84; [18]): −100**
GDI (RT112/84; [19]): −100**
GDI (RT112/84; [20]): −100**
GDI (UMUC5; [1]): 100
GDI (UMUC5; [2]): 100
GDI (UMUC5; [3]): 100
GDI (UMUC5; [4]): 100
GDI (UMUC5; [5]): 100
GDI (UMUC5; [6]): 100
GDI (UMUC5; [7]): 100
GDI (UMUC5; [8]): 100
GDI (UMUC5; [9]): 100
GDI (UMUC5; [10]): 100
GDI (UMUC5; [11]): 100
GDI (UMUC5; [12]): 100
GDI (UMUC5; [13]): 99
GDI (UMUC5; [14]): 73
GDI (UMUC5; [15]): 31
GDI (UMUC5; [16]): 15
GDI (UMUC5; [17]): 15
GDI (UMUC5; [18]): 7
GDI (UMUC5; [19]): 6
GDI (UMUC5; [20]): 3

Nc1nc(=O)n(-c2ccccc2Cl)c2nc(C(F)(F)F)ccc12 [Compound A]
GDI (growth death index), single agent Cmpd A (SW900; Table 16B): 100
GDI (growth death index), single agent Cmpd A (SW900; Table 18B): 100
GDI (growth death index), single agent Cmpd A (UMUC11; Table 16E): 100
GDI (growth death index), single agent Cmpd A (UMUC11; Table 18E): 100
GDI (UMUC11; single agent Cmpd A, 1000 nM): 100
GDI (growth death index), single agent Cmpd A (RT112/84; Table 16C): 62
GDI (growth death index), single agent Cmpd A (RT112/84; Table 18C): 62
GDI (RT112/84; single agent Cmpd A, 1000 nM): 62
GDI (growth death index), single agent Cmpd A (UMUC5; Table 16D): 58
GDI (growth death index), single agent Cmpd A (UMUC5; Table 18D): 58
GDI (UMUC5; single agent Cmpd A, 1000 nM): 58

— US20260294915A1, “COMBINATION THERAPY COMPRISING A MAT2A INHIBITOR AND A TOPOISOMERASE INHIBITOR, A SPLICING INHIBITOR SULFONAMIDE, OR A KIF18 INHIBITOR” (IDEAYA BIOSCIENCES, INC., priority 2023, published 2026)
